Measurements from patent publication US20240391889A1, “ANTIMICROBIAL COMPOUNDS AND THE METHODS OF USE” (priority 2021, published 2024).
≈ marks a conversion by molar mass, not a printed value. Where two headings read alike, the source gives them in different places. Numbered stars: 1 amine (or outer) side, 2 acyl side, 3 side chain; on linkers, the order of the positions; unused ones are H or OH. Square brackets hold non-standard residues; d marks the D form. Peptide text beside a SMILES is read from it. N(tridecyl)Gly = CCCCCCCCCCCCCNCC(=O)O; X1 = CC(c1ccccc1)N(CC(=O)[*:2])[*:1]; NFurfurylGly = O=C(O)CNCc1ccco1; Gly(N(CH2)3NH2) = NCCCNCC(=O)O; Nphe = O=C(O)CNCc1ccccc1; NPrGly = CCCNCC(=O)O; Nlys = NCCCCNCC(=O)O

Assays:
[1] = tested on: single donor human red blood cells (hRBC)
[2] = tested on: Pseudomonas aeruginosa ATCC 25619; assay type: cell-based; settings: ATCC 25619, 24 h
Source text: (§1) This screening led to the discovery of RMG9-11 (FIG. 2C). The minimum inhibitory concentration (MIC) of resynthesized RMG9-11 was initially determined against C. albicans, C. neoformans, and the ESKAPE bacteria via CSLI guidelines (CLSI. Methods for Dilution Antimicrobial Susceptibility Tests for Bacteria That Grow Aerobically, 11th Edition. Clinical and Laboratory Standards Institute (2018); CLSI. Reference method for broth dilution antifungal susceptibility testing of yeasts; approved standard-third edition; CLSI document M27-A3. Clinical and Laboratory Standards Institute (2008)). […] C. albicans clinical isolates include a reference strain (M1), fluconazole susceptible strains (M4 and M6), and fluconazole resistant strains (M2, M3, M5, and M7). ATCC 64124 is multidrug resistant C. albicans strain that is resistant to amphotericin B, fluconazole, caspofungin, and flucytosine. All MICs were performed under CSLI guidelines in triplicate on at least three different days.
(§2) The minimum inhibitory concentration (MIC) of peptoids against the ESKAPE bacteria (Enterococcus faecium ATCC 6569; Staphylococcus aureus ATCC 29213; Klebsiella pneumoniae ATCC 13883; Acinetobacter baumanii ATCC 19606; Pseudomonas aeruginosa ATCC 25619; Enterococcus faecalis ATCC 29212; and Escherichia coli ATCC 25922) was determined following CLSI guidelines (CLSI. Methods for Dilution Antimicrobial Susceptibility Tests for Bacteria That Grow Aerobically, 11th Edition. Clinical and Laboratory Standards Institute, 2018). The MIC against Mycobacterium smegmatis was also determined following CLSI guidelines (Woods, G. L. et al. Susceptibility Testing of Mycobacteria, Nocardiae, and Other Aerobic Actinomycetes, 2nd edition. (2011)). Colonies picked from streaked tryptic soy agar plates were added to tryptic soy broth (TSB) to achieve a turbidity of OD600=0.08-0.15. Inoculant was diluted 1:200 into cation adjust Mueller Hinton Broth (CAMHB) and 90 μL was plated into each well of a 96 well black-wall plate. 2-fold serial dilutions of 10× peptoid (10 μL) were added to each well in triplicate and incubated at 37° C. for 24 hours for the ESKAPE bacteria and 72 hours for M. smegmatis. Tetracycline (20 μg/mL) was used as a positive control with DI water was used as a vehicle control. Following incubation for the ESKAPE bacteria, PRESTO BLUE (10 μL) was added to each well and incubated at 37° C. for one hour before measuring fluorescence on a SPECTRAMAX M5 plate reader (Ex. 555 nm; Em. 585 nm). Following incubation for M. smegmatis, wells were scored following CLSI guidelines to determine MIC. This assay was repeated three times on separate days.

[3] = tested on: Escherichia coli ATCC 25922; assay type: cell-based; settings: 24 h, CAMHB
Source text: as §1, §2

[4] = tested on: Staphylococcus aureus ATCC 29213; assay type: cell-based; settings: 24 h, CAMHB
Source text: as §1, §2

[5] = tested on: Enterococcus faecium ATCC 6569; assay type: cell-based; settings: ATCC 6569, 24 h
Source text: as §1, §2

[6] = tested on: Enterococcus faecalis ATCC 29212; assay type: cell-based; settings: 24 h, CAMHB
Source text: as §1, §2

[7] = tested on: Acinetobacter baumanii ATCC 19606; assay type: cell-based, Acinetobacter baumannii; settings: ATCC 19606, 24 h
Source text: (§3) This screening led to the discovery of RMG9-11 (FIG. 2C). The minimum inhibitory concentration (MIC) of resynthesized RMG9-11 was initially determined against C. albicans, C. neoformans, and the ESKAPE bacteria via CSLI guidelines (CLSI. Methods for Dilution Antimicrobial Susceptibility Tests for Bacteria That Grow Aerobically, 11th Edition. Clinical and Laboratory Standards Institute (2018); CLSI. Reference method for broth dilution antifungal susceptibility testing of yeasts; approved standard-third edition; CLSI document M27-A3. Clinical and Laboratory Standards Institute (2008)). […]
(§4) The minimum inhibitory concentration (MIC) of peptoids against the ESKAPE bacteria (Enterococcus faecium ATCC 6569; Staphylococcus aureus ATCC 29213; Klebsiella pneumoniae ATCC 13883; Acinetobacter baumanii ATCC 19606; Pseudomonas aeruginosa ATCC 25619; Enterococcus faecalis ATCC 29212; and Escherichia coli ATCC 25922) was determined following CLSI guidelines (CLSI. Methods for Dilution Antimicrobial Susceptibility Tests for Bacteria That Grow Aerobically, 11th Edition. Clinical and Laboratory Standards Institute, 2018). The MIC against Mycobacterium smegmatis was also determined following CLSI guidelines (Woods, G. L. et al. Susceptibility Testing of Mycobacteria, Nocardiae, and Other Aerobic Actinomycetes, 2nd edition. (2011)). […]

C. albicans = assay type: cell-based, Candida albicans
Source text: One of the most serious crises facing both new and existing antimicrobial compounds is the rapid development of resistance by pathogens to that compound, rendering it useless. This has been an issue observed with all major commercially available antimicrobial drugs and is an increasingly prevalent issue with antifungal drugs (Clatworthy et al., Nat. Chem. Biol. 3, 541-548 (2007); Wiederhold et al., Infect. Drug Resist. 10, 249-259 (2017)). The ability of C. albicans to gain resistance against RMG9-11 was evaluated using two techniques; serial and single passage. Ching et al. described a method for single passage assessment of gain of resistance, which was used here with RMG9-11 (Ching et al., Sci. Rep. 10, 8754 (2020)). Briefly, a single colony of C. albicans was incubated overnight in RPMI-MOPS. Fungal cultures were then incubated for either 24 or 48 hours with concentrations of RMG9-11 ranging from 0 to 80% MIC. […]
Gain of resistance to RMG9-11 by C. albicans was determined using a serial passage assay following previously published methods.43 Single colonies of C. albicans from a frozen stock streak plate were added to a saline solution (0.85%) to achieve an OD530=0.15-0.25. […]

[8] = tested on: Klebsiella pneumoniae ATCC 13883; assay: Bacterial MIC assay, K. pneumoniae; assay type: cell-based; settings: 24 h, CAMHB
Source text: as §3, §4

C. krusie = assay type: cell-based, Candida krusie

`CCCCCCCCCCCCCNCC(=O)N(CCC)CC(=O)N(CC(=O)N(CCCCN)CC(=O)N(CC(=O)N(CC(=O)N(CCCN)CC(N)=O)Cc1ccccc1)Cc1ccco1)C(C)c1ccccc1` (centres unmarked) [RMG9-11] (H-[N(tridecyl)Gly][NPrGly][X1][Nlys][NFurfurylGly][Nphe][Gly(N(CH2)3NH2)]-NH2) was tested, and the “HC10 hRBC” value [1] was 29 µg/mL, the “MIC P. aeruginosa” value [2] was 12.5 µg/mL (≈ 12 µM) and the “MIC E. coli” value [3] was 6.25 µg/mL (≈ 5.99 µM). The “MIC S. aureus” value [4] was 6.25 µg/mL (≈ 5.99 µM), the “MIC E. faecium” value [5] was 3.13 µg/mL (≈ 3 µM) and the “MIC E. faecalis” value [6] was 6.25 µg/mL (≈ 5.99 µM). The “MIC A. baumannii” value [7] was 12.5 µg/mL (≈ 12 µM), the “Serial Passage MIC” value (C. albicans; Treated: serial passage with 1 to 25% MIC RMG9-11) was 6.25 µg/mL and the “Serial Passage MIC” value (C. albicans; Untreated C. albicans) was 6.25 µg/mL. The “MIC K. pneumonia” value [8] was 50 µg/mL (≈ 47.9 µM) and the “MIC C. krusie” value (C. krusie) was 3.13 µg/mL (≈ 3 µM).
